Measured values reported in patent US20020120098A1, “Enhanced stimulation of erythropoiesis” (priority 1996, published 2002).

Legend:
Type in all cases: cell-based, human
[1] = test system: CFU-E; assay: Colony formation assay (CFA), cord blood LDMNC: CFU-E colonies; conditions: for CFU-E progenitor number, fold increase: 2 U/ml Epo, ambient O2, vs vehicle control; for fold increase in CFU-E at 5% O2: 5% O2, 2 U/ml Epo, 1.0 mg/ml HAo or HEMOLINK, 100 μM hemin, relative to untreated controls at ambient O2
Protocol: (§1) This technique, referred to as the colony formation assay (CFA), is the most widely used biological assay to identify and enumerate erythroid progenitors present in hematopoietic tissue such as blood and bone marrow. Cell populations containing erythroid progenitors are plated in semi-solid suspensions of methyl cellulose, agar, low melting agarose or related substances in nutrient culture medium containing 1-3 U/ml Epo and 10 ng/ml IL-3 to specifically stimulate erythroid progenitors. Plates are incubated at 37° C. for 14 days during which time the erythroid progenitors form characteristic hemoglobinized (red) colonies. Two distinct but related erythroid progenitors can be distinguished based on colony size and morphology: BFU-E, the most primitive recognizable erythroid progenitor forms large multilobular colonies whereas the more mature CFU-E forms smaller spherical colonies.
(§2) Adult hemoglobin was purified according to U.S Pat. Nos. 5,439,591 and 5,545,328 to obtain HAo and HEMOLINK™ was prepared from HAo according to U.S. Pat. No. 5,532,352. Human umbilical cord blood intended for discard was collected from the umbilical vein of placentas immediately postpartum into 10 ml vacutainer tubes containing 143 USP units/ml sodium heparin. Low density mononuclear cells were separated from red blood cells by centrifugation over a 1.077 g/ml density gradient Cells removed from the plasma/density gradient interface were incubated overnight in a tissue culture flask with 10 ml cell culture medium containing 10% fetal bovine serum, and non-adherent LDMNC were further purified with an additional density gradient step. The LDMNC were then plated into colony formation assays (CFA) on the second day of isolation. In the CFA, LDMNC were plated at a density of 1×10^5 cells/ml in Iscoves modified Dulbeccos cell culture medium containing 0.8% methyl-cellulose, 30% fetal bovine serum, 1% bovine serum albumin, 0.1 mM 2-mercaptoethanol and 2 mM L-glutamine. Unless indicated otherwise, under standard CFA conditions 2 U/ml Epo and 10 ng/ml IL-3 are added to the formulation to stimulate hematopoietic progenitor growth, specifically BFU-E, CFU-E and CFU-GM.
(§3) Each condition was tested in duplicate in from 2-18 independent experiments. Cultures were maintained in a humidified incubator at 37° C., 5% CO2 and ambient oxygen tensions. The number of hematopoietic progenitors was scored between days 13-15 by counting the number and types of colonies present.
(§4) Erythroid progenitor colony formation assays were conducted as described in Example 1 except that cultures were incubated at either ambient oxygen tensions (˜20% O2) or 5% O2. The reduced oxygen tension of 5% O2 approximates the physiological intravascular oxygen tension in mammals. The mean fold increase in cord blood BFU-E, CFU-E and CFU-GM progenitor number at 5% O2 produced by 1.0 mg/ml HAo (15.6 μM; n=11) or HEMOLINK™ (15.6 μM; n=6), 100 μM hemin (n=10), 250 μM FeCl3 (n=6) or no addition (n=17-18), is shown FIG. 2. Results are expressed relative to control cells treated only with respective vehicles and cultured at ambient oxygen tensions (˜20% O2; fold expansion=1.0; *p<0.05, **p<0.01).
(§5) Erythroid progenitor colony formation assays were conducted as described in Example 1 except that cultures were initiated in the presence of Epo concentrations ranging from 0-2 U/ml. The mean fold increase in cord blood BFU-E, CFU-E and CFU-GM progenitor number produced by 1.0 mg/ml HAo (15.6 μM; n=9) or HEMOLINK™ (15.6 μM; n=6), 100 μM hemin (n=8), 250 μM FeCl3 (n=6), or no addition (n=9-10) in the presence of reduced Epo concentrations (0.2 U/ml) is shown in FIG. 3. Cultures were maintained at ambient oxygen tensions (˜20% O2) for 14 days. Results are expressed relative to control cells at 2 U/ml Epo treated only with the respective vehicles (solid line at fold expansion=1.0; *p<0.05, **p<0 01). Erythroid progenitor colonies were undetectable in the absence of Epo. […]

[2] = test system: BFU-E; assay: Colony formation assay (CFA), cord blood LDMNC: BFU-E colonies; conditions: for BFU-E progenitor number, fold increase: 2 U/ml Epo, ambient O2, vs vehicle control; for fold increase in BFU-E number over untreated controls (no addition) at 0.2 U/ml Epo / fold increase in BFU-E at 5% O2: 1.0 mg/ml HAo or HEMOLINK; for fold increase in BFU-E number over untreated controls (no addition) at 0.2 U/ml Epo: 250 μM FeCl3; for fold increase in BFU-E at 5% O2: 5% O2, 2 U/ml Epo, relative to untreated controls at ambient O2
Protocol: as §1, §2, §3, §4, §5

[3] = test system: BFU-E; assay: Colony formation assay, CD34+/CD38- and CD34+/CD33- enriched cord blood cells: BFU-E; conditions: 2 U/ml Epo, 5% O2, 14 days; vs untreated controls under same conditions
Source text: CD34^+/CD38^− cells were isolated from cord blood LDMNC using the STEMSEP™ system (StemCell Technologies Inc., Vancouver, Canada). The CD34^+/CD38^− cell purity was increased from <0.1% in unfractionated LDMNC to ˜81% CD34^+/CD38^− cells post fractionation as determined by flow cytometry. To obtain the CD34^+/CD33^− cells CD34^+ cells were first isolated from cord blood LDMNC using the CEPRATE™ LC system (CellPro Inc., Bothell, Wash.). The CD34^+/CD33^− fraction was then enriched to ˜94% purity by flow fluorescence activated cell sorting (FACS; Epics Elite, Coulter Electronics, Hialeah, Fla.). The colony formation assay was conducted as described in Examples 1-4, except that 1×10^3 CD34^+ cells/ml were plated versus 1×10^3 unfractionated cord blood LDMNC/ml normally plated. Mean fold increase in BFU-E and CFU-E progenitor number produced from CD34^+ CD38^− enriched (a; n=2) and CD34^+ CD33^− enriched (b; n=1) cord blood LDMNC stimulated by 1.0 mg/ml HAo (15.6 μM) or HEMOLINK™ (15.6 μM), 100 μM hemin 250 μM FeCl3 in the presence of 2 U/ml Epo is shown in FIG. 13. Cultures were maintained at 5% O2 for 14 days. The results are expressed relative cells treated only with the respective vehicles and cultured under the same conditions.

[4] = test system: BFU-E; assay: Colony formation assay (CFA), cord blood LDMNC: BFU-E colonies; conditions: 5% O2, 0.2 U/ml Epo; 100 μM hemin, 1.0 mg/ml HAo or HEMOLINK; relative to controls at 2 U/ml Epo, ambient O2
[5] = 1 mg/ml HEMOLINK plus 0-100 μM ganciclovir

Molecule	CFU-E progenitor number, fold increase ([1]; dose 1.0 μM)	CFU-E progenitor number, fold increase ([1]; dose 10 μM)	CFU-E progenitor number, fold increase ([1]; dose 250 μM)	BFU-E progenitor number, fold increase ([2]; dose 1.0 μM)	BFU-E progenitor number, fold increase ([2]; dose 10 μM)	BFU-E progenitor number, fold increase ([2]; dose 250 μM)	increase in BFU-E from CD34+ enriched progenitor populations (in words) [3]	fold increase in CFU-E at 5% O2 [1]	fold increase in BFU-E at 0.2 U/ml Epo and 5% O2 [4]	fold increase in BFU-E number over untreated controls (no addition) at 0.2 U/ml Epo ([2]; 0.2 U/ml Epo, ambient O2)	fold increase in BFU-E at 5% O2 ([2]; 100 μM hemin)	also measured
[Cl][Fe]([Cl])[Cl] [FeCl3]	1.0 fold	1.2 fold	1.1 fold	1.2 fold	1.4 fold	*1.7 fold	to a lesser extent	–	–	–	–	–
HEMOLINK™: chemically crosslinked hemoglobin prepared by treating human hemoglobin with a polyaldehyde (O-raffinose)	–	–	–	–	–	–	stimulated an increase in BFU-E	~3 fold	2.6 fold	3 fold	~8 fold	protection of CFU-E from ganciclovir toxicity [1, 5]: protects CFU-E; reduction of toxicity of ganciclovir to BFU-E [2, 5]: about 10 fold
C=CC1=C(C)C2=Cc3c(C=C)c(C)c4[n]3[Fe-2]35([Cl])[n]6c(c(C)c(CCC(=O)O)c6=CC6=[N+]3C(=C4)C(C)=C6CCC(=O)O)=CC1=[N+]25 [hemin]	1.2 fold	*1.6 fold	2.2 fold	0.9 fold	1.5 fold	2.2 fold	stimulated an increase in BFU-E	~3 fold	4 fold	–	~8 fold	CFU-E progenitor number, fold increase ([1]; dose 64 μM): 1.8 fold; BFU-E number at 0.2 U/ml Epo compared with untreated controls at 2 U/ml Epo ([2]; 0.2 U/ml Epo, ambient O2, 100 μM hemin): generated the same number of BFU-E as the untreated controls at 2 U/ml Epo
HAo: adult human hemoglobin obtained from red blood cells and purified by displacement chromatography; uncross linked product	–	–	–	–	–	–	stimulated an increase in BFU-E	~3 fold	3.3 fold	3 fold	~8 fold	CFU-E progenitor number, fold increase ([1]; dose 10 μg/ml): 1.2 fold; CFU-E progenitor number, fold increase ([1]; dose 100 μg/ml): 1.5 fold; CFU-E progenitor number, fold increase ([1]; dose 500 μg/ml): *1.4 fold; BFU-E progenitor number, fold increase ([2]; dose 10 μg/ml): 1.1 fold; BFU-E progenitor number, fold increase ([2]; dose 100 μg/ml): 1.3 fold; BFU-E progenitor number, fold increase ([2]; dose 500 μg/ml): **1.7 fold
